From patent publication US8063210B2, “Process and intermediate” (AstraZeneca AB, priority 2006, dated 2011) come the findings set out here.

Data set [1] relates to human colorectal (SW620, HCT116, Colo205) and lung (A549, Calu-6) tumour xenografts. Nature of the data set: tumour growth inhibition in human tumour xenografts. Format: in vivo. Particulars: panel of human colorectal (SW620, HCT116, Colo205) and lung (A549, Calu-6) tumour xenografts; with statistical significance. On the technique in general: Xenograft models place foreign cells or tissue in a host animal.

Data set [2] can be described thus: pro-drug conversion to the active moiety in human plasma. Format: in vitro ADME.

Molecules are shown by their SMILES.

On to `CCN(CCCOc1ccc2c(Nc3cc(CC(=O)Nc4cccc(F)c4)n[nH]3)ncnc2c1)CCOP(=O)(O)O` [AZD1152, 2-{ethyl[3-({4-[(5-{2-[(3-fluorophenyl)amino]-2-oxoethyl}-1H-pyrazol-3-yl)amino]quinazolin-7-yl}oxy)propyl]amino}ethyl dihydrogen phosphate], for which, in data set [1], the “inhibition of tumour growth” value is “inhibit tumour growth”. Also, in data set [2], the “conversion of pro-drug to active moiety AZD1152 HQPA” value was “rapidly and completely converted”.
